# Laboratory results from US20180271930A1, “METHOD FOR RAISING POULTRY” (priority 2015, published 2018).
# Assays:
# [1] = Examination 4: body weight of chicks raised until 35 days old after feeding GSSG or GSH for 3 days; assay type: in vivo, broiler chicks; conditions: 0.01% by mass additive in feed for 3 days; n = 6, average ± standard deviation
# Protocol: Newly hatched broiler chicks (Ross Breeders Ltd.) were tested. A control group (=additive-free group), a GSSG addition group (0.01% by mass), and a GSH addition group (0.01% by mass) each consisting of 5 males and 5 females were set and fed with a feed composition for 3 days. […] At this timing, 2 males and 2 females in each group were slaughtered to collect blood and skeletal muscles. The gene expression levels of the MyoD family (myogenin, myostatin, and Pax7) were observed. […] Statistics were analyzed using a mixed model in consideration of a gender difference and an interaction between males and females. An ammonium salt was used as oxidized glutathione (GSSG). The GSSG contained 95.6% by mass of oxidized glutathione, and the content of reduced glutathione mixed therein was 0.1% by mass or less. […] A feed composition, for which the amount of oxidized glutathione (GSSG) added was set to 0.01% by mass, is described in Examination 1. A feed composition, for which the amount of reduced glutathione (GSH) added was set to 0.01% by mass, was prepared by adding 0.01% by mass of GSH, instead of 0.01% by mass of GSSG, to the GSSG-containing feed composition described in detail in Examination 1.
# [2] = Examination 1: body weight of initial-phase chicks fed additive-containing feed for 3 days; assay type: in vivo, broiler chicks of the Chunky breed (Ross 308); conditions: n = 6
# Protocol: Newly hatched broiler chicks of the Chunky breed (Ross 308, Ross Breeders Ltd.) were tested. […] Blood and skeletal muscles were collected to observe gene expression levels of MyoD, myogenin, myostatin, and IGF-I (insulin-like growth factor-I). An ammonium salt was used as oxidized glutathione (GSSG). The GSSG contained 95.6% by mass of oxidized glutathione, and the content of reduced glutathione mixed therein was 0.1% by mass or less. […] The amount of GSSG used herein was determined in terms of the amount of free oxidized glutathione. In all the following Examinations, the amounts of GSSG are expressed in terms of the amount of free oxidized glutathione.
# myostatin = test: Examination 3: myostatin mRNA expression in skeletal muscle cells in differentiation medium; assay type: cell-based, broiler chicks (Ross 308); conditions: 100 μM GSSG in differentiation medium; cells recovered 0, 12, 24 h; FIG. 2B, n=6
# Description: (§1) FIGS. 2A to 2D illustrate graphs showing the expression levels of genes related to skeletal muscle cell differentiation upon the addition of GSSG during the skeletal muscle cell differentiation period in Examination 3 (n=6). […] A relative value of the expression level of each factor is expressed as an average±standard deviation of values obtained by dividing the expression levels of each factor by the expression level of RPS9. Each different symbol denotes a significant difference in the […] multiple comparison test (P<0.05). Oxidized glutathione (GSSG) was added to a differentiation-promoting culture medium system of skeletal muscle cells collected from newly hatched broiler chicks (Ross 308, Ross Breeders Ltd.) (under culture conditions simulating the state of skeletal muscle cells of neonatal chicks), phosphorylation of signal factors was analyzed by Western blot, and the differentiation inhibition mechanism was investigated. Expression levels of MyoD, myostatin, IGF-I, and Pax7 as genes involved in myogenesis were determined. Pax7 is a muscle satellite cell marker. […] The expression level of Pax7 was determined by the method described in Examination 1 except that the primer set used herein was a primer set listed in the table below. […] The cells were recovered 0, 12, and 24 hours later, and the expression levels of genes involved in myogenesis were determined. […]
# Pax7 = test: Examination 3: Pax7 expression in skeletal muscle cells in differentiation medium; assay type: cell-based, broiler chicks (Ross 308); conditions: 100 μM GSSG in differentiation medium; 12 hours after start of culture; FIG. 2D, n=6
# Description: as §1
substance,measurement,setting,value
oxidized glutathione [GSSG],"Weight, 14 days old",[1],524.5 ± 37.0 g
same,"Weight, 35 days old",[1],2164 ± 178 g
same,Weight at 3 days old,[2]; feed with 0.01% by mass GSSG for 3 days,78.1 ± 4.0 g
same,Weight at 3 days old,[2]; feed with 0.1% by mass GSSG for 3 days,72.8 ± 5.6 g
same,mRNA expression level of myostatin vs control,myostatin,significant decrease
same,expression of Pax7 vs control group,Pax7,significantly increased
